Assay results taken from patent publication US8492313B2, “Synergistic herbicidal combinations comprising tembotrione” (Bayer Cropscience AG, priority 2009, dated 2013).

Tested on: IPOHE (Ipomoea hederacea)
Assay: Post-emergence action against IPOHE
Format: in vivo
Description: The herbicidal activity of the active substances or active substance mixtures was evaluated visually from the treated variants in comparison with untreated control variants. In this connection, damage to and development of all plant parts above ground was included. The evaluation was carried out according to a percentage scale (100% action=all plants dead; 50% action=50% of the plants and green plant parts dead; 0% action=no recognizable action=as untreated control plot).
Seeds or root pieces of mono- and dicotyledonous weeds are placed in sandy clay soil in pots, covered with earth and secured in a greenhouse under good growing conditions (temperature, air humidity, water supply). Approximately three weeks after sowing, the test plants are treated with the compositions according to the invention. The compositions according to the invention formulated as wettable powders or as emulsion concentrates are sprayed, in spray application, on to the green plant parts in different dosages with a water application rate of 600 to 800 l/ha (corrected). Immediately up to a few days after application, the test receptacles accumulate water over the ground surface by up to 30 mm. With the water application (submerged application), on the other hand, the ground in the closed test receptacle is already covered with the paddy water up to 30 mm at the time of the application. The formulated active substances are here added directly to the paddy water. After an exposure time of the test plants in the greenhouse of an additional 3 to 4 weeks under optimum growing conditions, the effect of the preparations is evaluated visually in comparison with untreated controls. […] In this connection, actions of the combinations according to the invention which exceed the formal sum of the actions of the herbicides when applied individually are frequently observed. The values observed for the tests show, with suitable low dosages, an action of the combinations which lies above the expected values according to Colby.
If the observed activity values already exceed the formal sum of the values for the tests with individual applications, then they likewise exceed the expected value according to Colby, which is calculated according to the following formula and is likewise regarded as an indication of synergy (cf. S. R. Colby in Weeds, 15 (1967), pp. 20 to 22):
In this connection: • A, B=action of the component A or B in percent at a dosage of a or b grams ai/ha. • E=expected value in % at a dosage of a+b grams ai/ha.
The abbreviation IPOHE is the harmful plant Ipomoea hederacea.

[1] = dosage 50 g/ha, visual rating vs untreated control

CC(C)c1nn(C(=O)NC(C)(C)C)c(=O)n1N [B1, amicarbazone]
Action against IPOHE (dosage 125 g/ha): 20%

Nc1cc(Cl)nc(C(=O)O)c1Cl [B2, aminopyralid]
Action against IPOHE (dosage 75 g/ha): 30%

Nc1nc(C2CC2)nc(C(=O)[O-])c1Cl.[K+] [B4, aminocyclopyrachlor]
Action against IPOHE [1]: 35%

COc1cc(OC)nc(NC(=O)NS(=O)(=O)Nc2ccccc2C(=O)C2CC2)n1 [B6, cyclosulfamuron]
Action against IPOHE [1]: 20%

Cc1ccc2c(c1)[C@H](Nc1nc(N)nc(C(C)F)n1)[C@@H](C)C2 (some centres unmarked) [B7, indaziflam]
Action against IPOHE (dosage 25 g/ha): 25%

COCC(=O)OC(c1ncccc1S(=O)(=O)NC(=O)Nc1nc(OC)cc(OC)n1)C(C)F (centres unmarked) [B8, flucetosulfuron]
Action against IPOHE [1]: 20%

CC(C)N(C(=O)n1cnn(-c2ccc(Cl)cc2Cl)c1=O)c1ccc(F)cc1F [B9, ipfencarbazone]
Action against IPOHE [1]: 25%

C[C@@H](Oc1ccc(Oc2nc3ccc(Cl)cc3o2)cc1)C(=O)N(C)c1ccccc1F [B10, metamifop]
Action against IPOHE (dosage 75 g/ha): 15%

COc1cc(OC)nc(NC(=O)NS(=O)(=O)Nc2ccccc2C(=O)N(C)C)n1 [B11, orthosulfamuron]
Action against IPOHE (dosage 30 g/ha): 40%

COc1cnc(OC)n2nc(NS(=O)(=O)c3c(OCC(F)F)cccc3C(F)(F)F)nc12 [B12, penoxsulam]
Action against IPOHE (dosage 15 g/ha): 20%

CCc1cc(C)cc(CC)c1-c1c(OC(=O)C(C)(C)C)n2n(c1=O)CCOCC2 [B13, pinoxaden]
Action against IPOHE (dosage 30 g/ha): 15%

CCCc1ccc2nc(Cl)c(S(=O)(=O)NC(=O)Nc3nc(OC)cc(OC)n3)n2n1 [B14, propyrisulfuron]
Action against IPOHE [1]: 30%

C#CCN(C)c1c(C#N)cnn1-c1nn2c(c1Cl)CCCC2 [B15, pyraclonil]
Action against IPOHE (dosage 75 g/ha): 30%

Cc1nn(C)c(O)c1C(=O)c1ccc(C(F)(F)F)cc1S(C)(=O)=O [B16, pyrasulfotole]
Action against IPOHE (dosage 25 g/ha): 50%

COCc1cccc(C(O)c2nc(OC)cc(OC)n2)c1NS(=O)(=O)C(F)F (centres unmarked) [B17, pyrimisulfan]
Action against IPOHE [1]: 20%

Cn1nc(C(F)(F)F)c(CS(=O)(=O)C2=NOC(C)(C)C2)c1OC(F)F [B18, pyroxasulfone]
Action against IPOHE (dosage 75 g/ha): 15%

COc1cc(OC)n2nc(NS(=O)(=O)c3c(C(F)(F)F)ccnc3OC)nc2n1 [B19, pyroxsulam]
Action against IPOHE (dosage 15 g/ha): 20%

CC(C)N(C)S(=O)(=O)NC(=O)c1cc(-n2c(=O)cc(C(F)(F)F)n(C)c2=O)c(F)cc1Cl [B20, saflufenacil]
Action against IPOHE (dosage 10 g/ha): 45%

COc1cc(OC)nc(NC(=O)NS(=O)(=O)c2c(C3=NOCC(C)O3)c(Cl)nn2C)n1 (centres unmarked) [B21, 3-chloro-N-[(4,6-dimethoxypyrimidin-2-yl)carbamoyl]-1-methyl-4-(5-methyl-5,6-dihydro-1,4,2-dioxazin-3-yl)-1H-pyrazole-5-sulfonamide]
Action against IPOHE [1]: 15%

CS(=O)(=O)c1ccc(C(=O)C2C(=O)CCCC2=O)c(Cl)c1COCC(F)(F)F [tembotrione]
Action against IPOHE [1]: 40%
